# Data: US10131652B2, “Pyrimidinyloxy benzene derivatives as herbicides” (E. I. DU PONT DE NEMOURS AND COMPANY, priority 2014, dated 2018)
# Key:
# Format in all cases: in vivo
# [1] = system: barnyardgrass (Echinochloa crus-galli); test: Test D pre-/postemergence plant response
# How it was run: (§1)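 Visual injury scoring (0–100) at 13 to 15 days in greenhouse. Preemergence sprays on seeded loam/sand; postemergence sprays on 1–4 leaf plants.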
# [2] = system: morningglory (Ipomoea coccinea); test: Test D pre-/postemergence plant response
# How it was run: as §1
# [3] = system: johnsongrass (Sorghum halepense); test: Test D pre-/postemergence plant response
# How it was run: as §1
# [4] = system: yellow nutsedge (Cyperus esculentus); test: Test D pre-/postemergence plant response
# How it was run: as §1
# [5] = system: blackgrass (Alopecurus myosuroides); test: Test D pre-/postemergence plant response
# How it was run: as §1
# [6] = system: soybean (Glycine max); test: Test D pre-/postemergence plant response
# How it was run: as §1
# [7] = system: ragweed (common ragweed, Ambrosia elatior); test: Test D pre-/postemergence plant response
# How it was run: as §1
# [8] = system: large (Lg) crabgrass (Digitaria sanguinalis); test: Test D pre-/postemergence plant response
# How it was run: as §1
# [9] = system: giant foxtail (Setaria faberii); test: Test D pre-/postemergence plant response
# How it was run: as §1
# [10] = system: waterhemp (common waterhemp, Amaranthus rudis); test: Test D pre-/postemergence plant response
# How it was run: as §1
# [11] = system: pigweed (Amaranthus retroflexus); test: Test D pre-/postemergence plant response
# How it was run: as §1
# [12] = system: barnyardgrass (Echinochloa crus-galli); test: Test B pre-/postemergence plant response; details: for Barnyardgrass plant response rating: 0 to 100 scale (0 no effect, 100 complete control)
# How it was run: (§2)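 Ratings reflect visual injury versus untreated controls, from 0 for no effect to 100 for complete control, assessed roughly 10 days after treatment. Formulation: non-phytotoxic solvent mix with surfactant; pre- and postemergence sprays on plants grown in loam soil and sand.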
# [13] = system: corn (Zea mays); test: Test B pre-/postemergence plant response; details: 0 to 100 scale, 0 no effect, 100 complete control
# How it was run: as §2
# [14] = system: wheat (Triticum aestivum); test: Test B pre-/postemergence plant response; details: 0 to 100 scale, 0 no effect, 100 complete control
# How it was run: as §2
# [15] = system: giant foxtail (Setaria faberii); test: Test B pre-/postemergence plant response; details: for Foxtail, Giant plant response rating: 0 to 100 scale (0 no effect, 100 complete control)
# How it was run: as §2
# [16] = system: pigweed (Amaranthus retroflexus); test: Test B pre-/postemergence plant response; details: for Pigweed plant response rating: 0 to 100 scale (0 no effect, 100 complete control)
# How it was run: as §2
# [17] = Postemergence, 16 g ai/ha, scale 0 to 100 (0 no effect, 100 complete control)
# [18] = Postemergence, 31 g ai/ha, scale 0 to 100 (0 no effect, 100 complete control)
# [19] = Postemergence, 62 g ai/ha, scale 0 to 100, 0 no effect, 100 complete control
# [20] = Postemergence, 125 g ai/ha, scale 0 to 100, 0 no effect, 100 complete control
# [21] = 31 g ai/ha, Postemergence, 0 to 100 scale, 0 no effect, 100 complete control
# [22] = 125 g ai/ha, postemergence, 0 to 100 scale, 0 no effect, 100 complete control
# [23] = Preemergence, 125 g ai/ha, 0 to 100 scale where 0 is no effect and 100 is complete control
# [24] = Preemergence, 16 g ai/ha, scale 0 to 100 (0 no effect, 100 complete control)
# [25] = Preemergence, 31 g ai/ha, scale 0 to 100 (0 no effect, 100 complete control)
# [26] = Preemergence, 62 g ai/ha, scale 0 to 100 (0 no effect, 100 complete control)
smiles,measurement,setting,value
Fc1ccc(Oc2ncc(Cl)cn2)c(-c2cc(C(F)F)on2)c1Cl [Compound 96],Barnyardgrass plant response rating,[1]; [17],0
same,Barnyardgrass plant response rating,[1]; [18],0
same,"Plant response rating, Barnyardgrass",[1]; [19],5
same,"Plant response rating, Barnyardgrass",[1]; [20],5
same,Morningglory plant response rating,[2]; [17],85
same,Morningglory plant response rating,[2]; [18],40
same,"Plant response rating, Morningglory",[2]; [19],40
same,"Plant response rating, Morningglory",[2]; [20],30
same,Johnsongrass plant response rating,[3]; [17],0
same,Johnsongrass plant response rating,[3]; [18],0
same,"Plant response rating, Johnsongrass",[3]; [19],5
same,"Plant response rating, Johnsongrass",[3]; [20],10
same,"Nutsedge, Yellow plant response rating",[4]; [17],0
same,"Nutsedge, Yellow plant response rating",[4]; [18],5
same,"Plant response rating, Nutsedge, Yellow",[4]; [19],5
same,"Plant response rating, Nutsedge, Yellow",[4]; [20],5
same,Blackgrass plant response rating,[5]; [17],0
same,Blackgrass plant response rating,[5]; [18],10
same,"Plant response rating, Blackgrass",[5]; [19],10
same,"Plant response rating, Blackgrass",[5]; [20],20
same,Soybean plant response rating,[6]; [17],15
same,Soybean plant response rating,[6]; [18],50
same,"Plant response rating, Soybean",[6]; [19],55
same,"Plant response rating, Soybean",[6]; [20],35
same,Ragweed plant response rating,[7]; [17],0
same,Ragweed plant response rating,[7]; [18],10
same,"Plant response rating, Ragweed",[7]; [19],10
same,"Plant response rating, Ragweed",[7]; [20],40
same,"Crabgrass, Large plant response rating",[8]; [17],5
same,"Crabgrass, Large plant response rating",[8]; [18],5
same,"Plant response rating, Crabgrass, Large",[8]; [19],5
same,"Plant response rating, Crabgrass, Large",[8]; [20],10
same,"Foxtail, Giant plant response rating",[9]; [17],0
same,"Foxtail, Giant plant response rating",[9]; [18],5
same,"Plant response rating, Foxtail, Giant",[9]; [19],10
same,"Plant response rating, Foxtail, Giant",[9]; [20],10
same,Waterhemp plant response rating,[10]; [17],85
same,Waterhemp plant response rating,[10]; [18],95
same,"Plant response rating, Waterhemp",[10]; [19],98
same,"Plant response rating, Waterhemp",[10]; [20],100
same,Pigweed plant response rating,[11]; [17],98
same,Pigweed plant response rating,[11]; [18],95
same,"Plant response rating, Pigweed",[11]; [19],98
same,"Plant response rating, Pigweed",[11]; [20],98
same,"Plant response rating, Barnyardgrass",[12]; [21],10
same,"Plant response rating, Barnyardgrass",[12]; [22],30
same,Barnyardgrass plant response rating,"[12]; Preemergence, 31 g ai/ha",0
same,"Plant response rating, Barnyardgrass",[12]; [23],20
same,"Plant response rating, Corn","[13]; 31 g ai/ha, Postemergence",0
same,"Plant response rating, Corn","[13]; 125 g ai/ha, postemergence",20
same,"Plant response rating, Wheat","[14]; 31 g ai/ha, Postemergence",0
same,"Plant response rating, Wheat","[14]; 125 g ai/ha, postemergence",0
same,"Plant response rating, Foxtail, Giant",[15]; [21],0
same,"Plant response rating, Foxtail, Giant",[15]; [22],50
same,"Foxtail, Giant plant response rating","[15]; Preemergence, 31 g ai/ha",10
same,"Plant response rating, Foxtail, Giant",[15]; [23],40
same,"Plant response rating, Pigweed",[16]; [21],100
same,"Plant response rating, Pigweed",[16]; [22],100
same,Pigweed plant response rating,"[16]; Preemergence, 31 g ai/ha",90
same,"Plant response rating, Pigweed",[16]; [23],100
COc1cccc(Oc2ncc(Cl)cn2)c1-c1cc(C(F)(F)F)no1 [Compound 104],"Plant response rating (scale 0 to 100), Barnyardgrass","[1]; Preemergence, 62 g ai/ha",25
same,"Plant response rating (scale 0 to 100), Barnyardgrass","[1]; Preemergence, 125 g ai/ha",70
same,"Plant response rating, Barnyardgrass",[1]; [24],0
same,"Plant response rating, Barnyardgrass",[1]; [25],10
same,"Plant response rating (scale 0 to 100), Morningglory","[2]; Preemergence, 125 g ai/ha",25
same,"Plant response rating, Morningglory",[2]; [24],5
same,"Plant response rating, Morningglory",[2]; [25],5
same,"Plant response rating, Morningglory",[2]; [26],25
same,"Plant response rating (scale 0 to 100), Johnsongrass","[3]; Preemergence, 125 g ai/ha",65
same,"Plant response rating, Johnsongrass",[3]; [24],5
same,"Plant response rating, Johnsongrass",[3]; [25],20
same,"Plant response rating, Johnsongrass",[3]; [26],15
same,"Plant response rating (scale 0 to 100), Nutsedge, Yellow","[4]; Preemergence, 125 g ai/ha",0
same,"Plant response rating, Nutsedge, Yellow",[4]; [24],0
same,"Plant response rating, Nutsedge, Yellow",[4]; [25],0
same,"Plant response rating, Nutsedge, Yellow",[4]; [26],0
same,"Plant response rating (scale 0 to 100), Blackgrass","[5]; Preemergence, 125 g ai/ha",30
same,"Plant response rating, Blackgrass",[5]; [24],0
same,"Plant response rating, Blackgrass",[5]; [25],0
same,"Plant response rating, Blackgrass",[5]; [26],0
same,"Plant response rating (scale 0 to 100), Soybean","[6]; Preemergence, 125 g ai/ha",25
same,"Plant response rating, Soybean",[6]; [24],10
same,"Plant response rating, Soybean",[6]; [25],20
same,"Plant response rating, Soybean",[6]; [26],25
same,"Plant response rating (scale 0 to 100), Ragweed","[7]; Preemergence, 125 g ai/ha",60
same,"Plant response rating, Ragweed",[7]; [24],40
same,"Plant response rating, Ragweed",[7]; [25],25
same,"Plant response rating, Ragweed",[7]; [26],55
same,"Plant response rating (scale 0 to 100), Crabgrass, Large","[8]; Preemergence, 125 g ai/ha",100
same,"Plant response rating, Crabgrass, Large",[8]; [24],65
same,"Plant response rating, Crabgrass, Large",[8]; [25],85
same,"Plant response rating, Crabgrass, Large",[8]; [26],98
same,"Plant response rating (scale 0 to 100), Foxtail, Giant","[9]; Preemergence, 125 g ai/ha",100
same,"Plant response rating, Foxtail, Giant",[9]; [24],30
same,"Plant response rating, Foxtail, Giant",[9]; [25],80
same,"Plant response rating, Foxtail, Giant",[9]; [26],90
same,"Plant response rating (scale 0 to 100), Waterhemp","[10]; Preemergence, 125 g ai/ha",100
same,"Plant response rating, Waterhemp",[10]; [24],100
same,"Plant response rating, Waterhemp",[10]; [25],100
same,"Plant response rating, Waterhemp",[10]; [26],100
same,"Plant response rating (scale 0 to 100), Pigweed","[11]; Preemergence, 125 g ai/ha",100
same,"Plant response rating, Pigweed",[11]; [24],100
same,"Plant response rating, Pigweed",[11]; [25],100
same,"Plant response rating, Pigweed",[11]; [26],100
same,"Plant response rating, Barnyardgrass",[12]; [21],10
same,"Plant response rating, Barnyardgrass",[12]; [22],60
same,Barnyardgrass plant response rating,"[12]; Preemergence, 31 g ai/ha",20
same,"Plant response rating, Barnyardgrass",[12]; [23],80
same,"Plant response rating, Corn","[13]; 31 g ai/ha, Postemergence",10
same,"Plant response rating, Corn","[13]; 125 g ai/ha, postemergence",30
same,"Plant response rating, Wheat","[14]; 31 g ai/ha, Postemergence",0
same,"Plant response rating, Wheat","[14]; 125 g ai/ha, postemergence",10
same,"Plant response rating, Foxtail, Giant",[15]; [21],20
same,"Plant response rating, Foxtail, Giant",[15]; [22],80
same,"Foxtail, Giant plant response rating","[15]; Preemergence, 31 g ai/ha",40
same,"Plant response rating, Foxtail, Giant",[15]; [23],100
same,"Plant response rating, Pigweed",[16]; [21],90
same,"Plant response rating, Pigweed",[16]; [22],90
same,Pigweed plant response rating,"[16]; Preemergence, 31 g ai/ha",80
same,"Plant response rating, Pigweed",[16]; [23],100
